{"source": "patent US20070078170A1", "about": "“Process for the preparation of pioglitazone” (priority 2003, published 2007)", "key": {"[1]": {"experiment": "Clarity of solution in acidic media on standing", "type": "physicochemical"}, "[2]": {"experiment": "Solubility studies in USPII dissolution apparatus", "type": "physicochemical", "procedure": "Solubility experiments were performed in USPII dissolution apparatus operated at 150 r.p.m., at 25° C., in the following media: 250 ml of 0.01N HC1-0.3M KCI (pH 2)\nProcedure: 625 mg of pioglitazone hydrochloride was added in 250 ml of media and solubility was determined at given time points."}, "[3]": {"settings": "0.01N HCl-0.3M KCl media (pH 2)"}, "[4]": {"settings": "1.5 hrs, 625 mg in 250 ml of 0.01N HCl-0.3M KCl (pH 2), 25° C., 150 r.p.m., average of six unit data, Hydrochloride"}, "[5]": {"settings": "5 hrs, 625 mg in 250 ml of 0.01N HCl-0.3M KCl (pH 2), 25° C., 150 r.p.m., average of six unit data, Hydrochloride"}, "[6]": {"settings": "20 hrs, 625 mg in 250 ml of 0.01N HCl-0.3M KCl (pH 2), 25° C., 150 r.p.m., average of six unit data, Hydrochloride"}}}
{"substance": "pioglitazone hydrochloride [listing 1 of 2 here]", "values": [{"measurement": "Standing time over which the solution remains clear", "setting": "[1]", "result": "≥ 20", "unit": "h"}]}
{"substance": "Pioglitazone Hydrochloride [Example 5]", "values": [{"measurement": "Solubility", "setting": "[2]; [3]", "result": "more than 2.4 mg/ml"}, {"measurement": "Standing time without precipitation from the solution", "setting": "[2]; [3]", "result": "more than 5 hours"}, {"measurement": "Solubility", "setting": "[2]; 30 min, 625 mg in 250 ml of 0.01N HCl-0.3M KCl (pH 2), 25° C., 150 r.p.m., average of six unit data", "result": 2719, "unit": "µg/mL"}, {"measurement": "Solubility", "setting": "[2]; [4]", "result": 2587, "unit": "µg/mL"}, {"measurement": "Solubility", "setting": "[2]; [5]", "result": 2766, "unit": "µg/mL"}, {"measurement": "Solubility", "setting": "[2]; [6]", "result": 2747, "unit": "µg/mL"}]}
{"substance": "Pioglitazone Hydrochloride [Example 4]", "values": [{"measurement": "Observation of the media (turbidity, precipitation)", "setting": "[2]; 0.01N HCl-0.3M KCl (pH 2), later time points", "result": "the media starts becoming turbid and shows drug precipitation on later time points"}, {"measurement": "Solubility", "setting": "[2]; [4]", "result": 2265, "unit": "µg/mL"}, {"measurement": "Solubility", "setting": "[2]; [5]", "result": 722, "unit": "µg/mL"}, {"measurement": "Solubility", "setting": "[2]; [6]", "result": 473, "unit": "µg/mL"}]}
{"substance": "pioglitazone hydrochloride [listing 2 of 2 here]", "values": [{"measurement": "Standing time after which the solution becomes turbid and the drug precipitates", "setting": "[1]; initially clear solution", "result": "4 to 5", "unit": "h"}]}
